The values below come from patent US4058523A, “Bis(benzamido)-benzene derivatives” (Chugai Seiyaku Kabushiki Kaisha, priority 1974, dated 1977).

This assay deals with stress-induced ulcer formation. Nature of the assay: Inhibitory action on stress-induced ulcer formation. It is filed as in vivo, Sprague-Dawley strain male rats. The settings on record: 100 mg/kg, oral, rats; for Number of Ulcers/Stomach, 3 mm or larger / Number of Ulcers/Stomach, up to 3 mm: 10 minutes before stress; for Ulcer Index (mean value ± standard deviation): Ulcer Index = a + b/10, Control 6.1 ± 2.3; for inhibition in vivo at 100 mg/kg: Rattus norvegicus, 16 h, stress-induced ulcer, read-out: Percent Inhibition. On the procedure:
Action on stress-induced ulcer formation
Sprague-Dawley strain male rats weighing 200-250 g were deprived of food for 24 hours, and then laid down on their backs on a screen and fixed by fastening their limbs with a strand. The fixed rats were submerged in water bath to the depth of ensiform process with their hind legs dipped first. Sixteen hours after the submergence, the rats were brought out from the bath and their stomachs were taken out. After light fixation with a 1% formalin aqueous solution, the stomach of each animal was cut open along their greater curvature and gastric mucosa was observed through a dissecting microscope. The ulcer was evaluated on an ulcer index calculated from the following equation: […]
wherein a is the number of big ulcers more than 3 mm in diameter and b is the number of small ulcers up to 3 mm in diameter.
A test compound was orally administered as a suspension in a 1% gum arabic aqueous solution, 10 minutes before exposure to stress.

The structures appear in SMILES notation. Structures can show the parent of a compound that is named as a salt.

With `CCN(CC)CCCOc1ccc(NC(=O)c2cccc(C)c2)cc1NC(=O)c1cccc(C)c1` [1-(3'-diethylaminopropoxy)-2,4-bis(3"-methylbenzamido)-benzene], the “Number of Ulcers/Stomach, 3 mm or larger” value amounted to 0.3; the “Number of Ulcers/Stomach, up to 3 mm” value turned out to be 6; the “Ulcer Index (mean value ± standard deviation)” value was determined as 0.8 ± 1.0; the inhibition in vivo at 100 mg/kg stood at 87%.
With `CCN(CC)CCCOc1ccc(NC(=O)c2ccccc2OC)cc1NC(=O)c1ccccc1OC` [1-(3'-diethylaminopropoxy)-2,4-bis(2"-methoxybenzamido)-benzene], the “Number of Ulcers/Stomach, 3 mm or larger” value came out at 0.8; the “Number of Ulcers/Stomach, up to 3 mm” value is given as 8; the “Ulcer Index (mean value ± standard deviation)” value came out at 1.5 ± 2.4; the inhibition in vivo at 100 mg/kg is 76%.
For the molecule `CCN(CC)CCNC(=O)c1ccc(NC(=O)c2ccccc2C)cc1NC(=O)c1ccccc1C` [1-[N-(2'-diethylaminoethyl)-carbamoyl]-2,4-bis(2"-methylbenzamido)-benzene], the “Number of Ulcers/Stomach, 3 mm or larger” value is recorded as 1.2; the “Number of Ulcers/Stomach, up to 3 mm” value was determined as 29; the “Ulcer Index (mean value ± standard deviation)” value amounted to 4.2 ± 0.4; the inhibition in vivo at 100 mg/kg amounted to 38%.
`Cc1ccc(C(=O)Nc2ccc(C(=O)NCCCN(C)C)c(NC(=O)c3ccc(C)cc3)c2)cc1` [1-[N-(3'-dimethylaminopropyl)-carbamoyl]-2,4-bis(4"-methylbenzamido)-benzene]: the “Number of Ulcers/Stomach, 3 mm or larger” value was determined as 1.0; the “Number of Ulcers/Stomach, up to 3 mm” value was 19; the “Ulcer Index (mean value ± standard deviation)” value was determined as 3.0 ± 1.4; the inhibition in vivo at 100 mg/kg is 60%.
As for `CCN(CC)CCCOc1ccc(NC(=O)c2ccccc2C)cc1NC(=O)c1ccccc1C` [1-(3'-diethylaminopropoxy)-2,4-bis(2"-methylbenzamido)-benzene], the “Number of Ulcers/Stomach, 3 mm or larger” value came to 0; the “Number of Ulcers/Stomach, up to 3 mm” value was 6; the “Ulcer Index (mean value ± standard deviation)” value is on record as 0.5 ± 1.0; the inhibition in vivo at 100 mg/kg turned out to be 92%.
As for `CCN(CC)CCNC(=O)c1ccc(NC(=O)c2ccccc2OC)cc1NC(=O)c1ccccc1OC` [1-[N-(2'-diethylaminoethyl)-carbamoyl]-2,4-bis(2"-methoxybenzamido)-benzene hydrochloride], the “Number of Ulcers/Stomach, 3 mm or larger” value worked out at 1.1; the “Number of Ulcers/Stomach, up to 3 mm” value was 12; the “Ulcer Index (mean value ± standard deviation)” value was 3.8 ± 2.3; the inhibition in vivo at 100 mg/kg was 40%.
Consider `Cc1cccc(C(=O)Nc2ccc(OCCCCN(C)C)c(NC(=O)c3cccc(C)c3)c2)c1` [1-(4'-dimethylaminobutoxy)-2,4-bis(3"-methylbenzamido)-benzene], for which the “Number of Ulcers/Stomach, 3 mm or larger” value came to 0.5; the “Number of Ulcers/Stomach, up to 3 mm” value is 8; the “Ulcer Index (mean value ± standard deviation)” value is given as 1.2 ± 1.6; the inhibition in vivo at 100 mg/kg was determined as 82%.
Turning to `CCN(CC)CCCOc1ccc(NC(=O)c2ccc(C)cc2)cc1NC(=O)c1ccc(C)cc1` [1-(3'-diethylaminopropoxy)-2,4-bis(4"-methylbenzamido)-benzene], the “Number of Ulcers/Stomach, 3 mm or larger” value is on record as 1.3; the “Number of Ulcers/Stomach, up to 3 mm” value came out at 17; the “Ulcer Index (mean value ± standard deviation)” value turned out to be 3.0 ± 0.8; the inhibition in vivo at 100 mg/kg turned out to be 52%.
As for `CCN(CC)CCCCOc1ccc(NC(=O)c2ccccc2OC)cc1NC(=O)c1ccccc1OC` [1-(4'-diethylaminobutoxy)-2,4-bis(2"methoxybenzamido)-benzene], the “Number of Ulcers/Stomach, 3 mm or larger” value was found to be 0.8; the “Number of Ulcers/Stomach, up to 3 mm” value worked out at 11; the “Ulcer Index (mean value ± standard deviation)” value was 1.8 ± 1.5; the inhibition in vivo at 100 mg/kg stood at 71%.
On to `CCN(CC)CCCNC(=O)c1ccc(NC(=O)c2ccccc2OC)cc1NC(=O)c1ccccc1OC` [1-[N-(3'-diethylaminopropyl)-carbamoyl]-2,4-bis(2"-methoxybenzamido)-benzene], for which the “Number of Ulcers/Stomach, 3 mm or larger” value amounted to 0; the “Number of Ulcers/Stomach, up to 3 mm” value is recorded as 11; the “Ulcer Index (mean value ± standard deviation)” value was 1.3 ± 0.5; the inhibition in vivo at 100 mg/kg turned out to be 80%.
As for `Cc1ccccc1C(=O)Nc1ccc(OCCCCN(C)C)c(NC(=O)c2ccccc2C)c1` [1-(4'-dimethylaminobutoxy)-2,4-bis(2"-methylbenzamido)-benzene], the “Number of Ulcers/Stomach, 3 mm or larger” value stood at 0.2; the “Number of Ulcers/Stomach, up to 3 mm” value is on record as 6; the “Ulcer Index (mean value ± standard deviation)” value worked out at 1.0 ± 0.6; the inhibition in vivo at 100 mg/kg came to 85%.
`COc1ccccc1C(=O)Nc1ccc(OCCCN(C)C)c(NC(=O)c2ccccc2OC)c1` [1-(3'-dimethylaminopropoxy)-2,4-bis(2"-methoxybenzamido)-benzene trihydrochloride]: the “Number of Ulcers/Stomach, 3 mm or larger” value amounted to 0.5; the “Number of Ulcers/Stomach, up to 3 mm” value was found to be 13; the “Ulcer Index (mean value ± standard deviation)” value turned out to be 1.8 ± 2.4; the inhibition in vivo at 100 mg/kg stood at 71%.
As for `CCN(CC)CCCNC(=O)c1ccc(NC(=O)c2cccc(C)c2)cc1NC(=O)c1cccc(C)c1` [1-[N(3'-diethylaminopropyl)-carbamoyl]-2,4-bis(3"-methylbenzamido)-benzene], the “Number of Ulcers/Stomach, 3 mm or larger” value is listed as 0; the “Number of Ulcers/Stomach, up to 3 mm” value turned out to be 12; the “Ulcer Index (mean value ± standard deviation)” value is 1.0 ± 0.6; the inhibition in vivo at 100 mg/kg was 85%.
For `CCN(CC)CCNC(=O)c1cc(NC(=O)c2ccccc2OC)cc(NC(=O)c2ccccc2OC)c1` [1-[N-(2'-diethylaminoethyl)-carbamoyl]-3,5-bis(2"-methoxybenzamido)-benzene hydrochloride], the “Number of Ulcers/Stomach, 3 mm or larger” value is on record as 3.0; the “Number of Ulcers/Stomach, up to 3 mm” value turned out to be 13; the “Ulcer Index (mean value ± standard deviation)” value is recorded as 4.3 ± 2.2; the inhibition in vivo at 100 mg/kg was 33%.
As to `CCN(CC)CCNC(=O)c1ccc(NC(=O)c2ccc(C)cc2)cc1NC(=O)c1ccc(C)cc1` [1-[N-(2'-diethylaminoethyl)-carbamoyl]-2,4-bis(4"-methylbenzamido)-benzene], the “Number of Ulcers/Stomach, 3 mm or larger” value is reported as 1.4; the “Number of Ulcers/Stomach, up to 3 mm” value is reported as 26; the “Ulcer Index (mean value ± standard deviation)” value turned out to be 4.0 ± 1.4; the inhibition in vivo at 100 mg/kg turned out to be 40%.
The like results for `CCN(CC)CCNC(=O)c1ccc(NC(=O)c2cccc(C)c2)cc1NC(=O)c1cccc(C)c1` [1-[N-(2'-diethylaminoethyl)-carbamoyl]-2,4-bis(3"-methylbenzamido)-benzene] were, in that order, 1.3, 27, 4.0 ± 2.6 and 46%.
